Assay results reported in US11021470B2, “2-substituted quinazoline compounds comprising a substituted heterocyclic group and methods of use thereof” (Araxes Pharma LLC, priority 2015, dated 2021).

Biological target: T1, KRAS G12C 1-169, his-tagged protein, GDP-loaded (Homo sapiens, UniProt P01116, G12C)
T1 construct: KRAS G12C 1-169, his-tagged protein, GDP-loaded
Assay: KRAS G12C covalent binding (% modification) by mass spectrometry, ten or three minute incubation
Procedure: Test compounds were prepared as 10 mM stock solutions in DMSO (Fisher cat #BP-231-100). KRAS G12C 1-169, his-tagged protein, GDP-loaded was diluted to […] in buffer (20 mM Hepes, 150 mM NaCl, 1 mM MgCl2). Compounds were tested for activity as follows:
Compounds were diluted to 50× final test concentration in DMSO in 96-well storage plates. Compound stock solutions were vortexed before use and observed carefully for any sign of precipitation. Dilutions were as follow: • For 100 μM final compound concentration, compounds were diluted to 5000 μM (5 μl 10 mM compound stock+5 μl DMSO and mixed well by pipetting. • For 30 μM final compound concentration, compounds were diluted to 1500 μM (3 μl 10 mM compound stock+17 μl DMSO) and mixed well by pipetting. • For 10 μM final compound concentration, compounds were diluted to 500 μM (2 μl 10 mM compound stock+38 μl DMSO) and mixed well by pipetting. 49 μl of the stock protein solution was added to each well of a 96-well PCR plate (Fisher cat #1423027). 1 μl of the diluted 50× compounds were added to appropriate wells in the PCR plate using 12-channel pipettor. Reactions were mixed carefully and thoroughly by pipetting up/down with a 200 μl multi-channel pipettor. […] 5 μl of 2% formic acid (Fisher cat #A117) in DI H2O was then added to each well followed by mixing with a pipette. The plate was then resealed with aluminum seal and stored on dry ice until analyzed as described below.
The above described assays were analyzed by mass spectrometry according to one of the following two procedures:
The MS instrument is set to positive polarity, 2 GHz resolution, and low mass (1700) mode and allowed to equilibrate for 30 minutes. The instrument is then calibrated, switched to acquisition mode and the appropriate method loaded.
After another 30 minute equilibration time, a blank batch (i.e., buffer) is run to ensure equipment is operating properly. The samples are thawed at 37° C. for 10 minutes, briefly centrifuged, and transfer to the bench top. Wells A1 and H12 are spiked with 1 μL 500 μM internal standard peptide, and the plates centrifuged at 2000×g for 5 minutes. The method is then run and masses of each individual well recorded.
The masses (for which integration data is desired) for each well are pasted into the platemap and exported from the analysis. Masses for the internal standards are exported as well. The data at 50 ppm is extracted for the +19 charge state, and identity of well A1 is assigned using the internal standard spike and integrated. Peak data is exported as a TOF list and the above steps are repeated individually, for the +20, 21, 22, 23, 24, and 25 charge states.
The masses and peak intensities of KRAS G12C protein species were measured using a Dionex RSLCnano system (Thermo Scientific) connected to a Q Exactive Plus mass spectrometer (Thermo Scientific).
[…] of sample was each loaded onto a Aeris™ 3.6 μm WIDEPORE C4 200 Å, LC Column 50×2.1 mm column maintained at 40° C. at a flow rate of 600 μl min^−1 with […] (0.1% formic acid in acetonitrile). The liquid chromatography conditions were 20% solvent B for 1 min, 20% to 60% solvent B for 1.5 min, 60% to 90% solvent for 0.5 min, 90% solvent B for 0.2 min, 90% to 20% solvent B for 0.2 min, and then equilibrated for 1.6 min before the following sample injection. The flow rate was maintained at 600 μl min^−1 throughout the sample analysis.
The mass spectrometer was operated in profile mode at a resolution of 17500, 5 microscans, using 50 msec max injection time and an AGC target of 1e6, and a full mass range from 800-1850 m/z was recorded. The HCD trapping gas was optimized for maximum sensitivity for intact proteins. The ionization method was electrospray ionization, which used a spray voltage of 4 kV, sheath gas flow set to 50 au, auxiliary gas flow set to 10 au and sweep gas flow set to 1 au. […]

[1] = covalent binding to KRAS G12C, % modification after a three minute incubation period
[2] = covalent binding to KRAS G12C after a ten minute incubation period

Compound	Binding % [1]	Binding % [2]
C=CC(=O)N1C[C@H](C)N(c2nc(N3CC(N(C)C)C3)nc3c(F)c(-c4c(C)[nH]c5ccccc45)c(Cl)cc23)C[C@H]1C [Compound 287, 1-((2R,5S)-4-(6-chloro-2-(3-(dimethylamino)azetidin-1-yl)-8-fluoro-7-(2-methyl-1H-indol-3-yl)quinazolin-4-yl)-2,5-dimethylpiperazin-1-yl)prop-2-en-1-one]	+ (+ indicates binding activity greater than 0% and up to 50%)	–
C=CC(=O)N1C[C@H](C)N(c2nc(N3CC(N(C)C)C3)nc3c(F)c(-c4c(C)ccc5[nH]ncc45)c(Cl)cc23)C[C@H]1C [Compound 54, 1-((2R,5S)-4-(6-chloro-2-(3-(dimethylamino)azetidin-1-yl)-8-fluoro-7-(5-methyl-1H-indazol-4-yl)quinazolin-4-yl)-2,5-dimethylpiperazin-1-yl)prop-2-en-1-one]	–	+++ (+++ indicates binding activity greater than 90%)
C=CC(=O)N1C[C@@H](C)N(c2nc(N3CC(N(C)C)C3)nc3c(F)c(-c4c(O)cccc4F)c(Cl)cc23)C[C@@H]1C [Compound 81, 1-((2S,5R)-4-(6-chloro-2-(3-(dimethylamino)azetidin-1-yl)-8-fluoro-7-(2-fluoro-6-hydroxyphenyl)quinazolin-4-yl)-2,5-dimethylpiperazin-1-yl)prop-2-en-1-one]	–	+ (+ indicates binding activity greater than 0% and up to 50%)
C=CC(=O)N1CCN(c2nc(N3CC(N(C)C)C3)nc3c(F)c(-c4c(O)cccc4F)c(Cl)cc23)C[C@H]1C (atropisomer, axis not shown) [Compound 61, 1-((R)-4-((R)-6-chloro-2-(3-(dimethylamino)azetidin-1-yl)-8-fluoro-7-(2-fluoro-6-hydroxyphenyl)quinazolin-4-yl)-2-methylpiperazin-1-yl)prop-2-en-1-one]	–	++ (++ indicates binding activity from 50 to 90%)
C=CC(=O)N1C[C@H](C)N(c2nc(N3CC(N(C)C)C3)nc3c(Cl)c(-c4c(O)cccc4F)c(Cl)cc23)C[C@H]1C [Compound 251, 1-((2R,5S)-4-(6,8-dichloro-2-(3-(dimethylamino)azetidin-1-yl)-7-(2-fluoro-6-hydroxyphenyl)quinazolin-4-yl)-2,5-dimethylpiperazin-1-yl)prop-2-en-1-one]	++ (++ indicates binding activity from 50 to 90%)	–
C=CC(=O)N1C[C@H](C)N(c2nc(N3CC(N(C)C)C3)nc3c(F)c(-c4c[nH]c5cccc(C)c45)c(Cl)cc23)C[C@H]1C [Compound 291, 1-((2R,5S)-4-(6-chloro-2-(3-(dimethylamino)azetidin-1-yl)-8-fluoro-7-(4-methyl-1H-indol-3-yl)quinazolin-4-yl)-2,5-dimethylpiperazin-1-yl)prop-2-en-1-one]	+ (+ indicates binding activity greater than 0% and up to 50%)	–
C=CC(=O)N1C[C@H](C)N(c2nc(OC3CCN(C)CC3)nc3c(F)c(-c4cc(O)cc5ccccc45)c(Cl)cc23)C[C@H]1C [Compound 245, 1-((2R,5S)-4-(6-chloro-8-fluoro-7-(3-hvdroxynaphthalen-1-yl)-2-((1-methylpiperidin-4-yl)oxy)quinazolin-4-yl)-2,5-dimethylpiperazin-1-yl)prop-2-en-1-one]	+++ (+++ indicates binding activity greater than 90%)	–
C=CC(=O)N1C[C@H](C)N(c2nc(N3CC(N(C)C)C3)nc3c(F)c(-c4c(F)ccc5cn[nH]c45)c(Cl)cc23)C[C@H]1C [Compound 261, 1-((2R,5S)-4-(6-chloro-2-(3-(dimethylamino)azetidin-1-yl)-8-fluoro-7-(6-fluoro-1H-indazol-7-yl)quinazolin-4-yl)-2,5-dimethylpiperazin-1-yl)prop-2-en-1-one]	+++ (+++ indicates binding activity greater than 90%)	–
C=CC(=O)N1CCN(c2nc(N3CC(N(C)C)C3)nc3c(F)c(-c4c(O)cccc4F)c(C(F)(F)F)cc23)C[C@H]1C (atropisomer, axis not shown) [Compound 271, 1-((R)-4-(2-(3-(dimethylamino)azetidin-1-yl)-8-fluoro-7-((S)-2-fluoro-6-hydroxyphenyl)-6-(trifluoromethyl)quinazolin-4-yl)-2-methylpiperazin-1-yl)prop-2-en-1-one]	+ (+ indicates binding activity greater than 0% and up to 50%)	–
C=CC(=O)N1C[C@H](C)N(c2nc(OCCCN3CC(F)(F)C3)nc3c(F)c(-c4c(C)ccc5[nH]ncc45)c(Cl)cc23)C[C@H]1C [Compound 248, 1-((2R,5S)-4-(6-chloro-2-(3-(3,3-difluoroazetidin-1-yl)propoxy)-8-fluoro-7-(5-methyl-1H-indazol-4-yl)quinazolin-4-yl)-2,5-dimethylpiperazin-1-yl)prop-2-en-1-one]	++ (++ indicates binding activity from 50 to 90%)	–
C=CC(=O)N1C[C@@H](C)N(c2nc(N3CC(N(C)C)C3)nc3c(F)c(-c4c(O)cccc4F)c(Cl)cc23)C[C@H]1C [Compound 86, 1-((2R,5R)-4-(6-chloro-2-(3-(dimethylamino)azetidin-1-yl)-8-fluoro-7-(2-fluoro-6-hydroxyphenyl)quinazolin-4-yl)-2,5-dimethylpiperazin-1-yl)prop-2-en-1-one]	+ (+ indicates binding activity greater than 0% and up to 50%)	–
C=CC(=O)N1C[C@H](C)N(c2nc(OCCn3ccnc3C)nc3c(F)c(-c4c(O)cccc4F)c(Cl)cc23)C[C@H]1C (atropisomer, axis not shown) [Compound 264, 1-((2R,5S)-4-(6-chloro-8-fluoro-7-((S)-2-fluoro-6-hydroxyphenyl)-2-(2-(2-methyl-1H-imidazol-1-yl)ethoxy)quinazolin-4-yl)-2,5-dimethylpiperazin-1-yl)prop-2-en-1-one]	+++ (+++ indicates binding activity greater than 90%)	–
C=CC(=O)N1C[C@@H](C)N(c2nc(N3CC(N(C)C)C3)nc3c(F)c(-c4c(O)cccc4F)c(Cl)cc23)C[C@H]1C [Compound 80, 1-((2R,5R)-4-(6-chloro-2-(3-(dimethylamino)azetidin-1-yl)-8-fluoro-7-(2-fluoro-6-hydroxyphenyl)quinazolin-4-yl)-2,5-dimethylpiperazin-1-yl)prop-2-en-1-one]	–	+ (+ indicates binding activity greater than 0% and up to 50%)
C=CC(=O)N1C[C@H](C)N(c2nc(N3CC(N(C)C)C3)nc3c(F)c(-c4cc(O)cc5ccccc45)c(C(F)(F)F)cc23)C[C@H]1C (atropisomer, axis not shown) [Compound 256, 1-((2R,5S)-4-(2-(3-(dimethylamino)azetidin-1-yl)-8-fluoro-7-((S)-3-hydroxynaphthalen-1-yl)-6-(trifluoromethyl)quinazolin-4-yl)-2,5-dimethylpiperazin-1-yl)prop-2-en-1-one]	+ (+ indicates binding activity greater than 0% and up to 50%)	–
C=CC(=O)N1C[C@H](C)N(c2nc(OCCn3ccnc3C#N)nc3c(F)c(-c4c(O)cccc4F)c(Cl)cc23)C[C@H]1C (atropisomer, axis not shown) [Compound 278, 1-(2-(4-((2S,5R)-4-acryloyl-2,5-dimethylpiperazin-1-yl)-6-chloro-8-fluoro-7-((S)-2-fluoro-6-hydroxyphenyl)quinazolin-2-yloxy)ethyl)-1H-imidazole-2-carbonitrile]	++ (++ indicates binding activity from 50 to 90%)	–
